The source of these data is patent US20120046284A1, “Salts and hydrates of 4-[(3-chloro-4-fluoro-phenyl)amino]-6-(cis-4--cyclohexan-1-yloxy)-7-methoxy-quinazoline, their use as a medicament and the preparation thereof” (BOEHRINGER INGELHEIM INTERNATIONAL GMBH, priority 2010, published 2012).

Values after ≈ are worked out from the molar mass of the structure shown. Counter-ions that a name gives are not always drawn.

Data set [1] can be described thus: Solubility tests in water (2 hours shaking at ambient temperature, UV spectroscopy; pH of saturated solution). The data set is classed as physicochemical. The following applies: for solubility: in water, 2 hours, ambient temperature; for intrinsic pH of the saturated solution: saturated aqueous solution. As for the experimental part:
The solubility of the different crystalline forms of formula (I) or (6) in water is determined as follows: approx. 5 mg of the corresponding form are added to 5 ml of water. The mixture is shaken for 2 hours at ambient temperature in an overhead shaker made by the Heidolph company. Then the undissolved fractions are filtered off through a 0.45 μm PTFE filter. The dissolved fraction in the filtrate is determined by UV spectroscopy. In addition, the pH of the saturated aqueous solution is also measured with a standard pH electrode.

A short description of data set [2]: Water absorption tests (DVS, hygroscopic characteristics). In kind it is physicochemical. As for the experimental part: A DVS-1 made by Surface Measurement Systems (=SMS) is used to investigate the hygroscopic characteristics: the following humidity profiles are used: from 10-90% r.h. in steps of 10%, absorption and desorption profiles are recorded, typical weights: 10-20 mg The corresponding diagrams (kinetic and isothermic plot) of the different forms are shown in FIGS. 1c+d-5c+d.

For a further data set, the target named is T1, human EGF-R (Homo sapiens, UniProt P00533).
T1 construct: expressed in transfected cells
T1 sequence (P00533 25-1210): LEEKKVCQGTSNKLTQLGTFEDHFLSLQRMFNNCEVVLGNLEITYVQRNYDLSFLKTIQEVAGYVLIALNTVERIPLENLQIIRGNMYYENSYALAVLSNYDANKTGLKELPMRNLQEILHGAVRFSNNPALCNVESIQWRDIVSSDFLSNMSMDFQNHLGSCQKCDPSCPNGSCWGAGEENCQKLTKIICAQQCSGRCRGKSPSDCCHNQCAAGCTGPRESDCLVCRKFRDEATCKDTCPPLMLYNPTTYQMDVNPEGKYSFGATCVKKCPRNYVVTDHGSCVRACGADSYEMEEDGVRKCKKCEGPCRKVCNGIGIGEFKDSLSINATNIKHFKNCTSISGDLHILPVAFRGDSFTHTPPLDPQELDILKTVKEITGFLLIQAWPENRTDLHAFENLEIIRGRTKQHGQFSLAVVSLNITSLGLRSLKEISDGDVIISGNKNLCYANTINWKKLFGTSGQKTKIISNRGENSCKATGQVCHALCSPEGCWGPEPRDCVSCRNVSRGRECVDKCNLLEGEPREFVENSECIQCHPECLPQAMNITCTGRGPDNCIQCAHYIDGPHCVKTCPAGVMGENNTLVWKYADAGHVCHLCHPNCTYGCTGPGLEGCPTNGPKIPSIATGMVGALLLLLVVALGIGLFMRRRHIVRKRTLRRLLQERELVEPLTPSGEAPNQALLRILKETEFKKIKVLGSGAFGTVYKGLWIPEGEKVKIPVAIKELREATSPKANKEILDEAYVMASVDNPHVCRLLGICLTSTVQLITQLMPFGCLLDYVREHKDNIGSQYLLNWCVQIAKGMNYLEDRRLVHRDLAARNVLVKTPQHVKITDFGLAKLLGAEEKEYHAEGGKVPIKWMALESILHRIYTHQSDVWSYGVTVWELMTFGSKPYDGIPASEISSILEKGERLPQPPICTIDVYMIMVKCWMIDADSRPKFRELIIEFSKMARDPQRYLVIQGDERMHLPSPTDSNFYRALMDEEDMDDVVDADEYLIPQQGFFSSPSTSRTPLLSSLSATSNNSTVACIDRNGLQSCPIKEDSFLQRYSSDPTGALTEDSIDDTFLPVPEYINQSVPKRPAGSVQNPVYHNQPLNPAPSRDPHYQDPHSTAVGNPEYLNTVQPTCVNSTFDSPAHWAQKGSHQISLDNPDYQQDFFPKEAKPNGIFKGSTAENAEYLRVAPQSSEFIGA
Description: Inhibition of the EGFR-dependent proliferation (EGF-stimulated murine haematopoietic cell line expressing human EGF-R). In kind it is cell-based. The following applies: 20 ng/ml human EGF, 48 hours at 37° C. The procedure: A murine haematopoietic cell line is genetically modified so as to express functional human EGF-R. The proliferation of this cell line can therefore be stimulated by EGF.
The test is carried out as follows:
The cells are cultivated in RPMI/1640 medium. The proliferation is stimulated with 20 ng/ml of human EGF (Promega). To investigate the inhibitory activity of the compounds according to the invention these compounds are dissolved in 100% dimethylsulphoxide (DMSO) and added to the cultures in various dilutions, the maximum DMSO concentration being 1%. The cultures are incubated for 48 hours at 37° C.
In order to determine the inhibitory activity of the compound (I.1) according to the invention the relative cell number is measured in O.D. units using the Cell Titer 96TM AQueous Non-Radioactive Cell Proliferation Assay (Promega). The relative cell number is calculated as a percentage of the control and the concentration of active substance which inhibits the proliferation of the cells by 50% (IC50) is derived therefrom.

Where [3] appears, read: listed as monohydrate free base (I.2).
[4] abbreviates: listed as anhydrous free base (6).
Setting [5] is: listed as hemihydrochloride sesquihydrate (I.1).

`COc1cc2ncnc(Nc3ccc(F)c(Cl)c3)c2cc1O[C@H]1CC[C@@H](N(C)C(=O)N2CCOCC2)CC1` [Compound (I.2), 4-[(3-chloro-4-fluoro-phenyl)amino]-6-(cis-4-{N-[(morph-1-olin-4-yl)carbonyl]-N-methyl-amino}-cyclohexan-1-yloxy)-7-methoxy-quinazoline]: in data set [1] (setting [3]), the solubility was under 1 µg/mL and the “intrinsic pH of the saturated solution” value turned out to be 5.9.

For the compound `COc1cc2ncnc(Nc3ccc(F)c(Cl)c3)c2cc1O[C@H]1CC[C@@H](N(C)C(=O)N2CCOCC2)CC1` [(6), 4-[(3-chloro-4-fluoro-phenyl)amino]-6-(cis-4-{N-[(morph-1-olin-4-yl)carbonyl]-N-methyl-amino}-cyclohexan-1-yloxy)-7-methoxy-quinazoline], in data set [1] (setting [4]), the solubility was under 1 µg/mL and the “intrinsic pH of the saturated solution” value came to 5.9.

In the case of `COc1cc2ncnc(Nc3ccc(F)c(Cl)c3)c2cc1O[C@H]1CC[C@@H](N(C)C(=O)N2CCOCC2)CC1` [Compound (I.1), 4-[(3-chloro-4-fluoro-phenyl)amino]-6-(cis-4-{N-[(morph-1-olin-4-yl)carbonyl]-N-methyl-amino}-cyclohexan-1-yloxy)-7-methoxy-quinazoline], in data set [1] (setting [5]), the solubility amounted to 170 µg/mL (≈ 312 µM) and the “intrinsic pH of the saturated solution” value is 6.5. Further, the “hygroscopic characteristics: change in particle size or phase depending on the relative humidity” value in data set [2] is “no change in particle size or phase change takes place”. For the same compound, the IC50 against human EGF-R is 10 nM.

For the compound `COc1cc2ncnc(Nc3ccc(F)c(Cl)c3)c2cc1O[C@H]1CC[C@@H](N(C)C(=O)N2CCOCC2)CC1` [low-melting form monohydrochloride (I.3), 4-[(3-chloro-4-fluoro-phenyl)amino]-6-(cis-4-{N-[(morph-1-olin-4-yl)carbonyl]-N-methyl-amino}-cyclohexan-1-yloxy)-7-methoxy-quinazoline], in data set [1], the solubility was found to be 47 µg/mL and the “intrinsic pH of the saturated solution” value was 4.0.

Take `COc1cc2ncnc(Nc3ccc(F)c(Cl)c3)c2cc1O[C@H]1CC[C@@H](N(C)C(=O)N2CCOCC2)CC1` [high-melting form monohydrochloride (I.3)] [4-[(3-chloro-4-fluoro-phenyl)amino]-6-(cis-4-{N-[(morph-1-olin-4-yl)carbonyl]-N-methyl-amino}-cyclohexan-1-yloxy)-7-methoxy-quinazoline]: in data set [1], the solubility turned out to be 41 µg/mL and the “intrinsic pH of the saturated solution” value was 3.3.

One may read the solubility as the dissolved amount per volume that the medium holds. Read a low solubility as a poorly soluble substance. The IC50 is the concentration needed to halve the response being measured. A high value points to a need for much substance.
